Experiments:
[1] = system: mice; experiment: Biliary fluorescence in mice given PED6 by gavage; type: in vivo, mouse; conditions: PED6 1 μg by gavage, t=30 min
Procedure: FIG. 5. Lipid processing. […] C. Mouse digestive organs. D. Gall bladder fluorescence after processing (t=30 min) of PED6 (1 μg), administered by gavage. Symbols: gb, ball bladder; d, common bile duct; lv, liver. Scale bars, 1.0 mm (C and D), 200 μm (other images).

[2] = system: 5 dpf zebrafish larvae; experiment: Gall bladder fluorescence in 5 dpf zebrafish larvae soaked in fluorescent lipids; conditions: 5 dpf larvae soaked in the lipid
Procedure: A. Bright-field image of a 5 dpf larva soaked in PED6 (3 μg/ml, 2 hr). B. Corresponding fluorescent image, with intestinal (arrow) and gall bladder (arrowhead) labeling. C. Larva soaked in BODIPY-C5-PC (0.2 μg/ml).
To determine whether these reagents could be used to study organ specific PLA2 activity, the quenched fluorescent lipids were administered to zebrafish larvae at 5 dpf, a developmental stage when the major larval organ systems function (FIG. 2).
First, to establish that PED6 is swallowed by the larvae, an unquenched fluorescent lipid was administered to 5 dpf larvae, and the appearance of labeled lipid in the pharynx and intestinal lumen before the gallbladder was noted (FIGS. 3C & 4). […] Dissected adult gall bladders were lysed in embryo medium (EM) (30 μl) containing BODIPY-FL-C5-PC (0.1 μg) to release bile. PLA2 activity was determined as described (1). Measurements were compared with activity of bile-depleted gallbladders. […] Fluorescent images were captured over 1 hr using a Zeiss Axiocam 2 mounted on a Leica MZFL-III.

| Compound | biliary (gall bladder) fluorescence after gavage [1] | time to gall bladder fluorescence after ingesting the lipid [2] |
| --- | --- | --- |
| CCCCCCCCCCCCCCCC(=O)OC[C@H](COP(=O)(O)OCCNC(=O)CCCCCNc1ccc([N+](=O)[O-])cc1[N+](=O)[O-])OC(=O)CCCCC1=[N+]2C(=Cc3c(C)cc(C)n3[B-]2(F)F)C=C1 [PED6, N-((6-(2,4-dinitrophenyl)amino)hexanoyl)-1-palmitoyl-2-BODIPY-FL-pentanoyl-sn-glycero-3-phosphoethanolamine] | rapid appearance of biliary fluorescence | 15 to 20 min |
| nitrobenzoxadiazole cholesterol [NDB cholesterol] | – | ≤ 30 min |
